Columns and labels:
Test in all cases: combination Emax (second highest fraction inhibited in the dose matrix, 72 h); higher = more inhibition; extreme values may be limits of the assay
[1] = test system: COLO-680N (Esophageal Squamous Cell Carcinoma)
How it was run: (§1)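 After 24 hours at 37°C and 5% CO2 in 1536-well plates, cells in DMEM/F12 or RPMI plus 10% FBS received two-drug dose matrices for 72 hours. Viability came from CellTiter-Glo 2.0 luminescence and was scaled as inhibition, anchored at 0 by vehicle wells and at 1 by blank wells. Combination Emax is taken as the second-highest inhibition in the matrix, and Bliss excess as the observed combination effect less EA + EB − EA·EB, with EA and EB the single-agent effects.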

[2] = test system: RKN (Other Solid Carcinomas)
How it was run: as §1

[3] = test system: PSN1 (Pancreatic Carcinoma)
How it was run: as §1

[4] = test system: NCI-H2342 (Lung Adenocarcinoma)
How it was run: as §1

[5] = test system: HSC-39 (Gastric Carcinoma)
How it was run: as §1

WM793B (Melanoma) = test system: WM793B (Melanoma)
How it was run: as §1

[6] = test system: OAW-42 (Ovarian Carcinoma)
How it was run: as §1

A2058 (Melanoma) = test system: A2058 (Melanoma)
How it was run: as §1

WM278 (Melanoma) = test system: WM278 (Melanoma)
How it was run: as §1

[7] = test system: SU-DHL-10 (B-Cell Non-Hodgkin's Lymphoma)
How it was run: as §1

[8] = test system: REH (B-Lymphoblastic Leukemia)
How it was run: as §1

[9] = test system: RERF-GC-1B (Gastric Carcinoma)
How it was run: as §1

[10] = test system: SHP-77 (Small Cell Lung Carcinoma)
How it was run: as §1

[11] = test system: LB996-RCC (Kidney Carcinoma)
How it was run: as §1

[12] = test system: RCM-1 (Colorectal Carcinoma)
How it was run: as §1

[13] = test system: HCT-15 (Colorectal Carcinoma)
How it was run: as §1

[14] = test system: NCI-H23 (Lung Adenocarcinoma)
How it was run: as §1

[15] = test system: FADU (Head and Neck Carcinoma)
How it was run: as §1

[16] = test system: MKN45 (Gastric Carcinoma)
How it was run: as §1

[17] = test system: RERF-LC-Sq1 (Squamous Cell Lung Carcinoma)
How it was run: as §1

Row | SMILES | combination Emax [1] | combination Emax [2] | combination Emax [3] | combination Emax [4] | combination Emax [5] | combination Emax (WM793B (Melanoma)) | combination Emax [6] | combination Emax (A2058 (Melanoma)) | combination Emax (WM278 (Melanoma)) | combination Emax [7] | combination Emax [8] | combination Emax [9] | combination Emax [10] | combination Emax [11] | combination Emax [12] | combination Emax [13] | combination Emax [14] | combination Emax [15] | combination Emax [16] | combination Emax [17]
1 | CN(CCO)CC[C@H](CSc1ccccc1)Nc1ccc(S(=O)(=O)NC(=O)c2ccc(N3CCC([C@@H](O)c4ccccc4-c4ccc(Cl)cc4)CC3)cc2)cc1S(=O)(=O)C(F)(F)F [AZD4320] + C[C@@H](Nc1cc(F)cc(F)c1)c1cc(C(=O)N(C)C)cc2c(=O)cc(N3CCOCC3)oc12 [AZD8186] (first compound max 1 µM, 7x7, partner max 3 µM) | 0.243 | 0.314 | 0.487 | 0.443 | 0.62 | 0.531 | 0.414 | 0.765 | 0.85 | 0.81 | 1 | 0.549 | 0.53 | 0.654 | 0.532 | 0.187 | 0.335 | 0.846 | 0.345 | 0.274
2 | CN(CCO)CC[C@H](CSc1ccccc1)Nc1ccc(S(=O)(=O)NC(=O)c2ccc(N3CCC([C@@H](O)c4ccccc4-c4ccc(Cl)cc4)CC3)cc2)cc1S(=O)(=O)C(F)(F)F [AZD4320] + Cc1cc2ncnn2cc1Nc1ncc2c(n1)n(C1CCOCC1)c(=O)n2C [AZD7648] (first compound max 1 µM, 7x7, partner max 10 µM) | 0.0933 | 0.135 | 0.315 | 0.27 | 0.367 | 0.221 | 0.348 | 0.0867 | 0.555 | 0.474 | 1 | 0.344 | 0.491 | 0.321 | 0.351 | 0.135 | 0.156 | 0.12 | 0.352 | 0.18
3 | CN(CCO)CC[C@H](CSc1ccccc1)Nc1ccc(S(=O)(=O)NC(=O)c2ccc(N3CCC([C@@H](O)c4ccccc4-c4ccc(Cl)cc4)CC3)cc2)cc1S(=O)(=O)C(F)(F)F [AZD4320] + Cn1cnc2c(F)c(Nc3ccc(Br)cc3Cl)c(C(=O)NOCCO)cc21 [Selumetinib] (first compound max 1 µM, 7x7, partner max 3 µM) | 0.246 | 0.326 | 0.664 | 0.423 | 0.57 | 0.578 | 0.436 | 0.76 | 0.918 | 0.617 | 0.992 | 0.716 | 0.613 | 0.513 | 0.785 | 0.284 | 0.435 | 0.832 | 0.511 | 0.49
4 | COc1nnc2ccc(N3CCC(c4ccc(OCCN5CCN(C)C(=O)[C@H]5C)cc4)CC3)nn12 [AZD5153] + C=CCn1c(=O)c2cnc(Nc3ccc(N4CCN(C)CC4)cc3)nc2n1-c1cccc(C(C)(C)O)n1 [AZD1775] (first compound max 1 µM, partner max 1 µM) | 0.353 | 0.527 | 0.54 | 0.711 | 0.967 | 0.636 | 0.615 | 0.8 | 0.581 | 1 | 0.926 | 0.77 | 0.66 | 0.835 | 0.667 | 0.739 | 0.963 | 0.592 | 0.696 | 0.743
5 | COc1nnc2ccc(N3CCC(c4ccc(OCCN5CCN(C)C(=O)[C@H]5C)cc4)CC3)nn12 [AZD5153] + CC1(C)CCC(CN2CCN(c3ccc(C(=O)NS(=O)(=O)c4ccc(NCC5CCOCC5)c([N+](=O)[O-])c4)c(Oc4cnc5[nH]ccc5c4)c3)CC2)=C(c2ccc(Cl)cc2)C1 [Venetoclax] (first compound max 1 µM, 7x7, partner max 1 µM) | 0.344 | 0.485 | 0.334 | 0.315 | 0.676 | 0.523 | 0.35 | 0.432 | 0.447 | 1 | 0.911 | 0.702 | 0.405 | 0.473 | 0.557 | 0.724 | 0.651 | 0.521 | 0.566 | 0.52
6 | COc1nnc2ccc(N3CCC(c4ccc(OCCN5CCN(C)C(=O)[C@H]5C)cc4)CC3)nn12 [AZD5153] + CCN(CCO)CCCOc1ccc2c(Nc3cc(CC(=O)Nc4cccc(F)c4)[nH]n3)ncnc2c1 [AZD2811] (first compound max 1 µM, 7x7, partner max 1 µM) | 0.357 | 0.44 | 0.566 | 0.433 | 0.952 | 0.641 | 0.459 | 0.788 | 0.466 | 1 | 0.903 | 0.685 | 0.432 | 0.534 | 0.612 | 0.807 | 0.666 | 0.533 | 0.556 | 0.555

— the supplement of paper PMC11061612
